Measured values published in BindingDB's records for doi:10.1016/j.ejmech.2014.06.070 (The University of Newcastle, 2014).

Test: Inhibition of Dynamin 1 in serum-starved human U2OS cells assessed as inhibition of clathrin-mediated […]-cojugated transferrin uptake pretreated for 30 mins by high-content imaging method

Row | SMILES | IC50 [µM]
1 | O=C1C=C(Nc2ccccc2C(=O)O)C(=O)C=C1Nc1ccccc1C(=O)O [2,2'-(3,6-dioxocyclohexa-1,4-diene-1,4-diyl)bis(azanediyl)dibenzoic acid] | 162
2 | O=C1C=C(Nc2ccc(C(=O)O)cc2)C(=O)C=C1Nc1ccc(C(=O)O)cc1 | 200
3 | O=C1C=C(Nc2ccc(O)cc2)C(=O)C=C1Nc1ccc(O)cc1 | 36
4 | O=C1C=C(Nc2cccc(C(=O)O)c2)C(=O)C=C1Nc1cccc(C(=O)O)c1 | > 300
5 | O=C1C=C(NCc2ccccc2)C(=O)C=C1NCc1ccccc1 | 120
